Measurements reported in ChEMBL document CHEMBL4359931, “Synthesis, biological evaluation and molecular docking studies of new amides of 4-bromothiocolchicine as anticancer agents” (Bioorg Med Chem, 2019).
The source made the active and inactive calls. No cut-off for these calls is given here.

How the values were obtained:
[1] = Antiproliferative activity against human ALL5 cells assessed as reduction in cell viability incubated for 120 hrs by MTT assay; type: functional, cell-based; settings: ALL5, 120 h
A549 = test: Antiproliferative activity against human A549 cells assessed as reduction in cell viability incubated for 120 hrs by MTT assay; type: functional, cell-based; settings: A549, 120 h
MCF7 [2] = test: Antiproliferative activity against human MCF7 cells assessed as reduction in cell viability incubated for 120 hrs by MTT assay; type: functional, cell-based; settings: MCF7, 120 h
LoVo = test: Antiproliferative activity against human LoVo cells assessed as reduction in cell viability incubated for 120 hrs by MTT assay; type: functional, cell-based
[3] = Antiproliferative activity against human LoVo/DX cells assessed as reduction in cell viability incubated for 120 hrs by MTT assay; type: functional, cell-based
BALB/3T3 = test: Antiproliferative activity against mouse BALB/3T3 cells assessed as reduction in cell viability incubated for 120 hrs by MTT assay; type: cell-based; settings: BALB/3T3, 120 h
[4] = Selectivity index, ratio of IC50 of mouse BALB/3T3 cells to IC50 of human ALL5 cells
[5] = Selectivity index, ratio of IC50 of mouse BALB/3T3 cells to IC50 of human A549 cells
[6] = Selectivity index, ratio of IC50 of mouse BALB/3T3 cells to IC50 of human MCF7 cells; type: toxicity; settings: BALB/3T3 cells versus MCF7 cells, read-out: Ratio IC50
[7] = Selectivity index, ratio of IC50 of mouse BALB/3T3 cells to IC50 of human LoVo cells; type: toxicity; settings: BALB/3T3 cells versus LoVo cells, read-out: Ratio IC50
[8] = Selectivity index, ratio of IC50 of mouse BALB/3T3 cells to IC50 of human LoVo/DX cells; type: toxicity; settings: BALB/3T3 cells versus LoVo/DX cells, read-out: Ratio IC50
[9] = Resistance index, ratio of IC50 of human LoVo/DX cells to IC50 of human LoVo cells; type: functional
[10] = Cell cycle arrest in human ALL5 cells assessed as accumulation in G2 phase at 5 times of antiproliferative IC50 incubated for 24 hrs by propidium iodide based flow cytometry (reference value: 10.6 %); type: functional
[11] = Cell cycle arrest in human ALL5 cells assessed as accumulation in G2 phase at 5 times of antiproliferative IC50 incubated for 48 hrs by propidium iodide based flow cytometry (reference value: 11.2 %); type: functional
[12] = Cell cycle arrest in human ALL5 cells assessed as accumulation in G2 phase at 5 times of antiproliferative IC50 incubated for 72 hrs by propidium iodide based flow cytometry (reference value: 11.3 %); type: functional
[13] = Cell cycle arrest in human ALL5 cells assessed as accumulation in G1 phase at 5 times of antiproliferative IC50 incubated for 24 hrs by propidium iodide based flow cytometry (reference value: 68.1 %); type: functional
[14] = Cell cycle arrest in human ALL5 cells assessed as accumulation in G1 phase at 5 times of antiproliferative IC50 incubated for 48 hrs by propidium iodide based flow cytometry (reference value: 67.4 %); type: functional
[15] = Cell cycle arrest in human ALL5 cells assessed as accumulation in G1 phase at 5 times of antiproliferative IC50 incubated for 72 hrs by propidium iodide based flow cytometry (reference value: 59.7 %); type: functional
[16] = Cell cycle arrest in human ALL5 cells assessed as accumulation in subG1 phase at 5 times of antiproliferative IC50 incubated for 24 hrs by propidium iodide based flow cytometry (reference value: 10.5 %); type: functional
[17] = Cell cycle arrest in human ALL5 cells assessed as accumulation in subG1 phase at 5 times of antiproliferative IC50 incubated for 48 hrs by propidium iodide based flow cytometry (reference value: 11 %); type: functional
[18] = Cell cycle arrest in human ALL5 cells assessed as accumulation in subG1 phase at 5 times of antiproliferative IC50 incubated for 72 hrs by propidium iodide based flow cytometry (reference value: 15.5 %); type: functional
MCF7 [19] = test: Cell cycle arrest in human MCF7 cells assessed as accumulation in G2 phase at 5 times of antiproliferative IC50 incubated for 24 hrs by propidium iodide based flow cytometry (reference value: 22.4 %); type: functional
MCF7 [20] = test: Cell cycle arrest in human MCF7 cells assessed as accumulation in G2 phase at 5 times of antiproliferative IC50 incubated for 48 hrs by propidium iodide based flow cytometry (reference value: 16 %); type: functional
MCF7 [21] = test: Cell cycle arrest in human MCF7 cells assessed as accumulation in G2 phase at 5 times of antiproliferative IC50 incubated for 72 hrs by propidium iodide based flow cytometry (reference value: 18.6 %); type: functional
MCF7 [22] = test: Cell cycle arrest in human MCF7 cells assessed as accumulation in G1 phase at 5 times of antiproliferative IC50 incubated for 24 hrs by propidium iodide based flow cytometry (reference value: 49.9 %); type: functional
MCF7 [23] = test: Cell cycle arrest in human MCF7 cells assessed as accumulation in G1 phase at 5 times of antiproliferative IC50 incubated for 48 hrs by propidium iodide based flow cytometry (reference value: 40.8 %); type: functional
MCF7 [24] = test: Cell cycle arrest in human MCF7 cells assessed as accumulation in G1 phase at 5 times of antiproliferative IC50 incubated for 72 hrs by propidium iodide based flow cytometry (reference value: 58 %); type: functional
MCF7 [25] = test: Cell cycle arrest in human MCF7 cells assessed as accumulation in subG1 phase at 5 times of antiproliferative IC50 incubated for 24 hrs by propidium iodide based flow cytometry (reference value: 7.79 %); type: functional
MCF7 [26] = test: Cell cycle arrest in human MCF7 cells assessed as accumulation in subG1 phase at 5 times of antiproliferative IC50 incubated for 48 hrs by propidium iodide based flow cytometry (reference value: 9.19 %); type: functional
MCF7 [27] = test: Cell cycle arrest in human MCF7 cells assessed as accumulation in subG1 phase at 5 times of antiproliferative IC50 incubated for 72 hrs by propidium iodide based flow cytometry (reference value: 3.59 %); type: functional
MCF7 [28] = test: Cell cycle arrest in human MCF7 cells assessed as accumulation in S phase at 5 times of antiproliferative IC50 incubated for 24 hrs by propidium iodide based flow cytometry (reference value: 19.9 %); type: functional
MCF7 [29] = test: Cell cycle arrest in human MCF7 cells assessed as accumulation in S phase at 5 times of antiproliferative IC50 incubated for 48 hrs by propidium iodide based flow cytometry (reference value: 34 %); type: functional
MCF7 [30] = test: Cell cycle arrest in human MCF7 cells assessed as accumulation in S phase at 5 times of antiproliferative IC50 incubated for 72 hrs by propidium iodide based flow cytometry (reference value: 19.8 %); type: functional
[31] = Cell cycle arrest in human ALL5 cells assessed as accumulation in S phase at 5 times of antiproliferative IC50 incubated for 24 hrs by propidium iodide based flow cytometry (reference value: […]); type: functional
[32] = Cell cycle arrest in human ALL5 cells assessed as accumulation in S phase at 5 times of antiproliferative IC50 incubated for 48 hrs by propidium iodide based flow cytometry (reference value: 10.3 %); type: functional
[33] = Cell cycle arrest in human ALL5 cells assessed as accumulation in S phase at 5 times of antiproliferative IC50 incubated for 72 hrs by propidium iodide based flow cytometry (reference value: 13.5 %); type: functional
Homo sapiens [34] = organism: Homo sapiens; test: Induction of cell cycle arrest in human ALL5 cells assessed as increase in 4 N DNA at 5 times of antiproliferative IC50 incubated for 24 hrs by propidium iodide based flow cytometry; type: functional
Homo sapiens [35] = organism: Homo sapiens; test: Induction of cell cycle arrest in human ALL5 cells assessed as increase in 4 N DNA at 5 times of antiproliferative IC50 incubated for 48 hrs by propidium iodide based flow cytometry; type: functional
Homo sapiens [36] = organism: Homo sapiens; test: Induction of cell death in human ALL5 cells assessed as decrease in 4 N DNA at 5 times of antiproliferative IC50 incubated for 72 hrs by propidium iodide based flow cytometry; type: functional

IC50 (A549) [nM] | IC50 (MCF7 [2]) [nM] | IC50 (LoVo) [nM] | Compound | IC50 [1] [nM] | IC50 [3] [nM] | IC50 (BALB/3T3) [nM] | Ratio IC50 [4] | Ratio IC50 [5] | selectivity ratio [6] | selectivity ratio [7] | selectivity ratio [8] | Ratio IC50 [9] | Activity [10] [%] | Activity [11] [%] | Activity [12] [%] | Activity [13] [%] | Activity [14] [%] | Activity [15] [%] | Activity [16] [%] | Activity [17] [%] | further results
10.5 | 11.2 | 7.2 | CCC(=O)N[C@H]1CCc2c(Br)c(OC)c(OC)c(OC)c2-c2ccc(SC)c(=O)cc21 | 8.5 | 87.2 | 11.2 | 1.3 | 1.1 | 1 | 1.6 | 0.1 | 12.1 | 17.2 | 17.5 | 8.93 | 52.4 | 35 | 25.7 | 17.4 | 33 | Activity [18]: 45.8%; Activity (MCF7 [19]): 74.3%; Activity (MCF7 [20]): 63.7%; Activity (MCF7 [21]): 53.8%; Activity (MCF7 [22]): 12%; Activity (MCF7 [23]): 15%; Activity (MCF7 [24]): 12.2%; Activity (MCF7 [25]): 6.15%; Activity (MCF7 [26]): 12.5%; Activity (MCF7 [27]): 17.7%; Activity (MCF7 [28]): 7.61%; Activity (MCF7 [29]): 8.78%; Activity (MCF7 [30]): 16.3%; Activity [31]: 12.9%; Activity [32]: 14.5%; Activity [33]: 19.5%; Activity (Homo sapiens [34]): Active; Activity (Homo sapiens [35]): Active; Activity (Homo sapiens [36]): Active
10.2 | 11.5 | 7 | COc1c(Br)c2c(c(OC)c1OC)-c1ccc(SC)c(=O)cc1[C@@H](NC(=O)C(C)C)CC2 | 8.6 | 75.9 | 20.4 | 2.4 | 2 | 1.8 | 2.9 | 0.3 | 10.8 | 15.8 | 20 | 7.59 | 52.5 | 32.1 | 23 | 18 | 31.9 | Activity [18]: 46.9%; Activity (MCF7 [19]): 78%; Activity (MCF7 [20]): 66.3%; Activity (MCF7 [21]): 57.5%; Activity (MCF7 [22]): 12%; Activity (MCF7 [23]): 11.4%; Activity (MCF7 [24]): 9.6%; Activity (MCF7 [25]): 4.89%; Activity (MCF7 [26]): 11.8%; Activity (MCF7 [27]): 17.5%; Activity (MCF7 [28]): 5.16%; Activity (MCF7 [29]): 10.6%; Activity (MCF7 [30]): 15.4%; Activity [31]: 13.7%; Activity [32]: 15.9%; Activity [33]: 22.5%; Activity (Homo sapiens [34]): Active; Activity (Homo sapiens [35]): Active; Activity (Homo sapiens [36]): Active
